# Results as given in US8613941B1, “Synergistic antimicrobial composition” (Dow Global Technologies LLC, priority 2012, dated 2013).
# Experiments:
# [1] = system: oil field isolated anaerobic consortium, mainly SRB; assay: Biocidal efficacy (MBC) of THPS, Tris Nitro and combination against sulfate reducing bacteria; type: cell-based, sulfate reducing bacteria (SRB); conditions: alone or in the blend, minimum tested biocide concentration for bacteria kill, 40° C., 24 hours, 10^6 to 10^7 CFU/mL
# Method: Inside an anaerobic chamber (BACTRON anaerobic chamber), a deaerated sterile salt solution (3.1183 g of NaCl, 1.3082 mg of NaHCO3, 47.70 mg of KCl, 72.00 mg of CaCl2, 54.49 mg of MgSO4, 172.28 mg of Na2SO4, 43.92 mg of Na2CO3 in 1 L water) was contaminated with an oil field isolated anaerobic consortium, mainly SRB, at final bacterial concentrations of 10^6 to 10^7 CFU/mL. The aliquots of this contaminated water were then treated with THPS and Tris Nitro, or the THPS/Tris Nitro combination at different active concentration levels. After the mixtures were incubated at 40° C. for 24 hours, the biocidal efficacy was determined by minimum tested biocide concentration for bacteria kill in the aliquots (MBC). Table 1 summarizes the efficacy of each biocide and their blends, and the Synergy Index* of each combination.
# oilfield SRB consortium = assay: Biocidal efficacy against anaerobic bacteria for a high temperature and sulfide-rich environment; type: cell-based, sulfate reducing bacteria (SRB); conditions: alone or in the blend, 80° C., 7 days, 10 ppm sulfide ion, 10^4 to 10^5 CFU/mL
# Method: Inside an anaerobic chamber (BACTRON IV), biocides solutions were challenged with 10^4 to 10^5 CFU/mL of an oilfield SRB consortium and 10 ppm sulfide ion (added in the form of sodium sulfide). The biocide solutions were then incubated at 80° C. under anaerobic condition for 7 days. Then the biocidal efficacy was evaluated against the field SRB consortium. The biocidal efficacy was determined by the biocide dosage required for 99.999% bacterial reduction. Synergy Index was then calculated. Table 2 summarizes the efficacy of each biocide and their blends, and the Synergy Index* of each combination.
Compound,"Average MBC (active ppm), Tris Nitro ([1]; Tris Nitro concentration) [active ppm]","Concentration (active ppm) required for 99.999% bacterial reduction, Tris Nitro (oilfield SRB consortium; Tris Nitro concentration) [active ppm]","Average MBC (active ppm), THPS ([1]; THPS concentration) [active ppm]","Concentration (active ppm) required for 99.999% bacterial reduction, THPS (oilfield SRB consortium; THPS concentration) [active ppm]"
"O=[N+]([O-])C(CO)(CO)CO [0:1, tris(hydroxymethyl)nitromethane]",46.1,360,,
tetrakis(hydroxymethyl)phosphonium sulfate [1:0],,,6.1,360.0
